The results in this text go back to the supplement of paper PMC10307832.

One assay relates to ABC-1. Nature of the assay: relative viability (nuclei count vs DMSO), 5 days (fraction); higher = more cells survive. As to conditions: first compound 2.53 µM. The gist of the method: (§1)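 Values are medians from duplicate plates. Each reflects relative viability, defined as the nuclei count of treated wells over that of vehicle wells. Lung cancer cell lines in 1536-well plates were pin-tool dosed one day after seeding with one drug alone or with a fixed anchor-drug dose plus five library-drug doses (not always all listed) in √10 steps, then fixed, stained and imaged at 4× after 5 days.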
The molecule `Nc1cccc2c1CN(C1CCC(=O)NC1=O)C2=O` (stereo not given) [Lenalidomide] + CC(=O)c1c(C)c2cnc(Nc3ccc(N4CCNCC4)cn3)nc2n(C2CCCC2)c1=O [Palbociclib] (partner 0.5 µM) yielded a relative viability of 0.904.

Consider `Nc1cccc2c1CN(C1CCC(=O)NC1=O)C2=O` (stereo not given) [Lenalidomide] + O=C(CCCCCCC(=O)Nc1ccccc1)NO [Vorinostat] (partner 1 µM), for which the relative viability amounted to 1.36.

The molecule `Nc1cccc2c1CN(C1CCC(=O)NC1=O)C2=O` (stereo not given) [Lenalidomide] + COc1cccc2cc(-c3nc([C@H]4CC[C@H](C(=O)O)CC4)n4ncnc(N)c34)[nH]c12 [OSI-027] (partner 0.5 µM) registered a relative viability of 0.533.

Staying with this assay, now noted: first compound 8 µM.
As for `Nc1cccc2c1CN(C1CCC(=O)NC1=O)C2=O` (stereo not given) [Lenalidomide] + N=C(N)NC(=N)NCCc1ccccc1 [Phenformin] (partner 250 µM), the relative viability was determined as 0.258.

As for `Nc1cccc2c1CN(C1CCC(=O)NC1=O)C2=O` (stereo not given) [Lenalidomide] + Cc1cc(Nc2cc(N3CCN(C)CC3)nc(Sc3ccc(NC(=O)C4CC4)cc3)n2)n[nH]1 [Tozasertib] (partner 0.1 µM), the relative viability amounted to 0.175.

In turn, `Nc1cccc2c1CN(C1CCC(=O)NC1=O)C2=O` (stereo not given) [Lenalidomide] + CC(=O)c1c(C)c2cnc(Nc3ccc(N4CCNCC4)cn3)nc2n(C2CCCC2)c1=O [Palbociclib] (partner 0.5 µM) had a relative viability of 0.671.

Molecule `Nc1cccc2c1CN(C1CCC(=O)NC1=O)C2=O` (stereo not given) [Lenalidomide] + O=C(CCCCCCC(=O)Nc1ccccc1)NO [Vorinostat] (partner 1 µM) registered a relative viability of 1.46.

Molecule `Nc1cccc2c1CN(C1CCC(=O)NC1=O)C2=O` (stereo not given) [Lenalidomide] + COc1cccc2cc(-c3nc([C@H]4CC[C@H](C(=O)O)CC4)n4ncnc(N)c34)[nH]c12 [OSI-027] (partner 0.5 µM) had a relative viability of 0.481.

The next assay concerns BEN. The assay is described as above. The following applies: first compound 0.253 µM. An outline of the steps:
as §1
Consider `Nc1cccc2c1CN(C1CCC(=O)NC1=O)C2=O` (stereo not given) [Lenalidomide] + N=C(N)NC(=N)NCCc1ccccc1 [Phenformin] (partner 250 µM), for which the relative viability stood at 0.287.

`Nc1cccc2c1CN(C1CCC(=O)NC1=O)C2=O` (stereo not given) [Lenalidomide] + Cc1cc(Nc2cc(N3CCN(C)CC3)nc(Sc3ccc(NC(=O)C4CC4)cc3)n2)n[nH]1 [Tozasertib] (partner 0.1 µM) registered a relative viability of 0.594.

The molecule `Nc1cccc2c1CN(C1CCC(=O)NC1=O)C2=O` (stereo not given) [Lenalidomide] + CC(=O)c1c(C)c2cnc(Nc3ccc(N4CCNCC4)cn3)nc2n(C2CCCC2)c1=O [Palbociclib] (partner 0.5 µM) returned a relative viability of 0.478.

The molecule `Nc1cccc2c1CN(C1CCC(=O)NC1=O)C2=O` (stereo not given) [Lenalidomide] + O=C(CCCCCCC(=O)Nc1ccccc1)NO [Vorinostat] (partner 1 µM) registered a relative viability of 0.559.

In the case of `Nc1cccc2c1CN(C1CCC(=O)NC1=O)C2=O` (stereo not given) [Lenalidomide] + COc1cccc2cc(-c3nc([C@H]4CC[C@H](C(=O)O)CC4)n4ncnc(N)c34)[nH]c12 [OSI-027] (partner 0.5 µM), the relative viability came out at 0.331.

Staying with this assay, now noted: first compound 0.8 µM.
`Nc1cccc2c1CN(C1CCC(=O)NC1=O)C2=O` (stereo not given) [Lenalidomide] + N=C(N)NC(=N)NCCc1ccccc1 [Phenformin] (partner 250 µM) showed a relative viability of 0.268.

With `Nc1cccc2c1CN(C1CCC(=O)NC1=O)C2=O` (stereo not given) [Lenalidomide] + Cc1cc(Nc2cc(N3CCN(C)CC3)nc(Sc3ccc(NC(=O)C4CC4)cc3)n2)n[nH]1 [Tozasertib] (partner 0.1 µM), the relative viability is 0.462.

Consider `Nc1cccc2c1CN(C1CCC(=O)NC1=O)C2=O` (stereo not given) [Lenalidomide] + CC(=O)c1c(C)c2cnc(Nc3ccc(N4CCNCC4)cn3)nc2n(C2CCCC2)c1=O [Palbociclib] (partner 0.5 µM), for which the relative viability turned out to be 0.496.

As for `Nc1cccc2c1CN(C1CCC(=O)NC1=O)C2=O` (stereo not given) [Lenalidomide] + O=C(CCCCCCC(=O)Nc1ccccc1)NO [Vorinostat] (partner 1 µM), the relative viability was found to be 0.5.

In turn, `Nc1cccc2c1CN(C1CCC(=O)NC1=O)C2=O` (stereo not given) [Lenalidomide] + COc1cccc2cc(-c3nc([C@H]4CC[C@H](C(=O)O)CC4)n4ncnc(N)c34)[nH]c12 [OSI-027] (partner 0.5 µM) gave a relative viability of 0.295.

Still in this assay, the particulars now being: first compound 2.53 µM.
Take `Nc1cccc2c1CN(C1CCC(=O)NC1=O)C2=O` (stereo not given) [Lenalidomide] + N=C(N)NC(=N)NCCc1ccccc1 [Phenformin] (partner 250 µM): the relative viability is 0.285.

For `Nc1cccc2c1CN(C1CCC(=O)NC1=O)C2=O` (stereo not given) [Lenalidomide] + Cc1cc(Nc2cc(N3CCN(C)CC3)nc(Sc3ccc(NC(=O)C4CC4)cc3)n2)n[nH]1 [Tozasertib] (partner 0.1 µM), the relative viability is 0.441.

Molecule `Nc1cccc2c1CN(C1CCC(=O)NC1=O)C2=O` (stereo not given) [Lenalidomide] + CC(=O)c1c(C)c2cnc(Nc3ccc(N4CCNCC4)cn3)nc2n(C2CCCC2)c1=O [Palbociclib] (partner 0.5 µM) came in with a relative viability of 0.418.

`Nc1cccc2c1CN(C1CCC(=O)NC1=O)C2=O` (stereo not given) [Lenalidomide] + O=C(CCCCCCC(=O)Nc1ccccc1)NO [Vorinostat] (partner 1 µM) had a relative viability of 0.617.

In turn, `Nc1cccc2c1CN(C1CCC(=O)NC1=O)C2=O` (stereo not given) [Lenalidomide] + COc1cccc2cc(-c3nc([C@H]4CC[C@H](C(=O)O)CC4)n4ncnc(N)c34)[nH]c12 [OSI-027] (partner 0.5 µM) had a relative viability of 0.316.

Staying with this assay, now noted: first compound 8 µM.
With `Nc1cccc2c1CN(C1CCC(=O)NC1=O)C2=O` (stereo not given) [Lenalidomide] + N=C(N)NC(=N)NCCc1ccccc1 [Phenformin] (partner 250 µM), the relative viability came out at 0.222.

Molecule `Nc1cccc2c1CN(C1CCC(=O)NC1=O)C2=O` (stereo not given) [Lenalidomide] + Cc1cc(Nc2cc(N3CCN(C)CC3)nc(Sc3ccc(NC(=O)C4CC4)cc3)n2)n[nH]1 [Tozasertib] (partner 0.1 µM) yielded a relative viability of 0.57.

Regarding `Nc1cccc2c1CN(C1CCC(=O)NC1=O)C2=O` (stereo not given) [Lenalidomide] + CC(=O)c1c(C)c2cnc(Nc3ccc(N4CCNCC4)cn3)nc2n(C2CCCC2)c1=O [Palbociclib] (partner 0.5 µM), the relative viability was 0.556.

As to `Nc1cccc2c1CN(C1CCC(=O)NC1=O)C2=O` (stereo not given) [Lenalidomide] + O=C(CCCCCCC(=O)Nc1ccccc1)NO [Vorinostat] (partner 1 µM), the relative viability worked out at 0.545.

Consider `Nc1cccc2c1CN(C1CCC(=O)NC1=O)C2=O` (stereo not given) [Lenalidomide] + COc1cccc2cc(-c3nc([C@H]4CC[C@H](C(=O)O)CC4)n4ncnc(N)c34)[nH]c12 [OSI-027] (partner 0.5 µM), for which the relative viability worked out at 0.3.

For another assay, the system named is CAL-12T. Described as above. As to conditions: first compound 0.253 µM. The gist of the method:
as §1
On to `Nc1cccc2c1CN(C1CCC(=O)NC1=O)C2=O` (stereo not given) [Lenalidomide] + N=C(N)NC(=N)NCCc1ccccc1 [Phenformin] (partner 250 µM), for which the relative viability is 0.548.

Molecule `Nc1cccc2c1CN(C1CCC(=O)NC1=O)C2=O` (stereo not given) [Lenalidomide] + Cc1cc(Nc2cc(N3CCN(C)CC3)nc(Sc3ccc(NC(=O)C4CC4)cc3)n2)n[nH]1 [Tozasertib] (partner 0.1 µM) yielded a relative viability of 0.3.
